Experimental data reported in patent publication US10130598B2, “Methods and compositions for administration of 3-halopyruvate and related compounds for the treatment of cancer” (The Johns Hopkins University, priority 2008, dated 2018).
pIC50: −log10 of the molar value. Like-named read-outs stand apart in the source and are kept apart here.

Columns and labels:
[1] = General toxicology studies, oral NaHCO3-buffered 3-BrPA; type: in vivo, nude mice; conditions: 100 and 200 mg/kg/day oral, single dose to 3-months of daily dosing
Protocol: General toxicology studies were conducted on nude mice that were orally administered NaHCO3-buffered 3-BrPA at doses of 0, 100 and 200 mg/kg/day. The duration of exposure in this study ranged from a single dose to 3-months of daily dosing. […] 3-BrPA treatment had no effect on body weight.

[2] = system: HepG2 cells; test: ATP dependent luminescence cell viability assay, HepG2; type: cell-based
Excerpt: (§1) The non-small cell lung cancer (NSCLC) cell line NCI-H1299, the breast cancer cell lines MCF7 and MDA MB 231 and the Hep3B, Hep2G and SK-Hep1 cells were obtained from the American Type Culture Collection (ATCC) (Manassas, Va., USA) and maintained as a monolayer culture in Eagle's minimum essential medium (MEM, Invitrogen, Gaithersburg, Md., USA) supplemented with 10% fetal bovine serum at 37 C and 5% CO2. All treatments were done in triplicate samples on 96-well plates. VX2 cells were maintained as described in Geschwind et al., Cancer Res., 62:3909-3913 (2002).
Cytotoxicity of 3-BrPA was evaluated by the IC50 values, representing the drug concentration which depletes ATP by 50% compared to non-treated control. On day 1, cells were seeded into 96-well plates in a volume of 100 μl per well. On day 2, the medium of all wells was removed and an aliquot of 100 μl of media having serial dilutions of 3-BrPA in PBS, NaHCO3, NaOH, KOH and KHCO3 was added to the appropriate well. […] Briefly, 100 μl assay reagent was added to each well and mixed at room temperature for 2 min to develop luminescent signal. The luminescence intensity (cps) from each sample was determined with a spectrometer (Model Victor III, Perkin Elmer, Mass.). […]
(§2) The effects on cell viability and cellular metabolism of 3-BrPA on Hep3B and VX2 cells were examined using luminescence ATP assays, as described above. […]

[3] = system: Vx-2 cell line; test: ATP dependent luminescence cell viability assay, VX2; type: cell-based; conditions: for pIC50: Vx-2, read-out: IC50 (ATP depletion)
Excerpt: as §1
Cytotoxicity of 3-BrPA was evaluated by the IC50 values, representing the drug concentration which depletes ATP by 50% compared to non-treated control. On day 1, cells were seeded into 96-well plates in a volume of 100 μl per well. On day 2, the medium of all wells was removed and an aliquot of 100 μl of media having serial dilutions of 3-BrPA in PBS, NaHCO3, NaOH, KOH and KHCO3 was added to the appropriate well. […] Briefly, 100 μl assay reagent was added to each well and mixed at room temperature for 2 min to develop luminescent signal. The luminescence intensity (cps) from each sample was determined with a spectrometer (Model Victor III, Perkin Elmer, Mass.). Relative luminescence was calculated in proportion to the numbers of living cells per sample well. The results are expressed as the mean of three independent experiments. The intracellular ATP contents were calculated and normalized by equal cell number and expressed as the percentage of the control cells. The IC50 values were estimated graphically from dose-response plots.
The efficacy of 3-BrPA in the treatment of liver cancer cells was further tested using the cancer cell lines Hep3B, HepG2, SK-Hep1 and VX2. […]
as §2

[4] = system: H1299 cells; test: Trypan blue viability assay, H1299; type: cell-based
Excerpt: as §1
The efficacy of 3-BrPA in the treatment of lung cancer cells was tested using the non-small cell lung cancer (NSCLC) cell line NCI-H1299. As described above, the cell line was grown as a monolayer in MEM (Invitrogen) supplemented with 10% fetal bovine serum (HyClone) at 37 C.° and 5% CO2, and all treatments were done in triplicate samples on 96-well plates.
The EC50 of 3-BrPA for H1299 cells lies between 0.08 and 0.09 mM. […] Therefore, considering that oral administration of 3-BrPA buffered in NaHCO3 is effective in prolonging survival in liver cancer models (Example 2), it is probable that oral administration of 3-BrPA buffered in NaHCO3 would also be effective in the treatment of lung cancer.

[5] = system: genomic DNA; test: 14C-3-BrPA incorporation into genomic DNA (scintillation counting); type: cell-based; conditions: SK-Hep and Hep3B cells exposed to 14C-3-BrPA
Protocol: Many antineoplastic chemotherapeutics are alkylating agents that exert their effect by binding to DNA and interfering with cell replication. […] Since 3-BrPA has been reported to be an alkylating agent, it was determined whether 3-BrPA is incorporated into the DNA of 3-BrPA treated cells. To accomplish this, genomic DNA was isolated from SK-Hep and Hep3B cells that had been exposed to ^14C-3-BrPA.

[6] = system: MDA MB 231 cells; test: Luminescence ATP assay, MDA MB 231; type: cell-based
Protocol: (§3) Cytotoxicity of 3-BrPA was evaluated by the IC50 values, representing the drug concentration which depletes ATP by 50% compared to non-treated control. On day 1, cells were seeded into 96-well plates in a volume of 100 μl per well. On day 2, the medium of all wells was removed and an aliquot of 100 μl of media having serial dilutions of 3-BrPA in PBS, NaHCO3, NaOH, KOH and KHCO3 was added to the appropriate well. After 24 h of drug exposure cytotoxic effects of 3-BrPA were monitored by cellular ATP level using CellTiter-Glo™ assay reagents from Promega Corp (Madison, Wis.). Briefly, 100 μl assay reagent was added to each well and mixed at room temperature for 2 min to develop luminescent signal. The luminescence intensity (cps) from each sample was determined with a spectrometer (Model Victor III, Perkin Elmer, Mass.). Relative luminescence was calculated in proportion to the numbers of living cells per sample well. The results are expressed as the mean of three independent experiments. The intracellular ATP contents were calculated and normalized by equal cell number and expressed as the percentage of the control cells. The IC50 values were estimated graphically from dose-response plots.
The anti-metabolic effect of 3-BrPA on MCF7 and MDA MB231 cells was examined using luminescence ATP assays, as described above. […]

[7] = system: H1299 cells; test: Luminescence ATP assay, H1299; type: cell-based
Protocol: as §3
The anti-metabolic effect of 3-BrPA on H1299 cells was examined using luminescence ATP assays, as described above. […]

SMILES: O=C(O)C(=O)CBr [3-BrPA, 3-bromopyruvate]
- Clinical symptoms [1]: did not exhibit any treatment related clinical symptoms
- Effect on body weight [1]: no effect
- Mortality [1]: no mortalities
- Organ weights, gross pathology and histopathology [1]: did not show any treatment-related changes
- Level of ATP ([2]; 3, 24, 48 hours): dose and time dependent decrease
- pIC50 ([2]; at 48 hours, read-out: IC50 (ATP depletion)): 3.90
- Level of ATP ([3]; VX2, 3, 24, 48 hours): dose and time dependent decrease
- pIC50 ([3]; at 48 hours): 4.30
- pIC50 ([3]; treatment time not given): 4.22
- Cells died ([4]; 0.1 mM, within 3 hours): more than 80%
- Cell death ([4]; 0.2 mM): 100%
- EC50 compared with EC50 of 3-BrPA for VX2 liver cancer cells ([4]; H1299): lower
- Viability (trypan blue) ([4]; H1299): dose and time dependent decrease in viability
- 14C incorporation into genomic DNA [5]: no evidence of ^14C incorporation
- ATP level (bioluminescent quantification) [6]: dose and time dependent energy (ATP) depletion
- ATP level (bioluminescent quantification) [7]: dose and time dependent energy (ATP) depletion
